Source: PubChem BioAssay AID179 (DTP/NCI, 2004)
Calls of active or inactive are those of the source.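 The calls were made as follows: active = compounds giving half or more protection of infected cells from virus-caused growth loss, again on retest; inactive = the rest.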 Where a SMILES comes first, the peptide text is derived from it.

Tested on: CEM cells HIV-1 protection, formazan growth assay
Test: NCI AIDS Antiviral Assay
Settings: for IC50: measured here: growth of uninfected CEM cells
In short: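 Protection of CEM cells against HIV-1 was scored from cell growth (soluble formazan) across five concentrations, with parallel uninfected cells. Lack of protection may reflect toxicity.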

Row | Structure (SMILES) | EC50 | IC50 | outcome
1 | COC(=O)[C@@H](NC1(c2ccccc2)c2ccccc2-c2ccccc21)[C@H](OC(=O)[C@H]1CCCN1S(=O)(=O)c1ccccc1)C(=O)OC | > 200 µM | 9.33 µM | –
2 | O=C1CN(/C=C(\c2ccccc2)S(=O)Cc2ccccc2)C(=S)N1 (centres undefined) | > 200 µM | > 200 µM | –
3 | CC1C2=CC=C(O2)C(C)(C)C2=CC=C(O2)C(C)(C)C2=CC=C(O2)C(C)(C)C2=CC=C1O2 | – | – | inactive
4 | O=C(N/N=C(/c1nc2ccc([N+](=O)[O-])cc2[nH]c1=O)C(O)c1ccc([N+](=O)[O-])cc1)c1ccncc1 (centres undefined) | > 138 µM | 129 µM | –
5 | O=S(=O)(O)c1ccc(O)c(N=Nc2ccc(S(=O)(=O)c3ccc(N=Nc4cc(S(=O)(=O)O)ccc4O)cc3)cc2)c1 | > 100 µM | > 100 µM | –
6 | O=C1C(c2ccccc2)=[N+]([O-])c2cc([N+](=O)[O-])ccc21 | – | – | inactive
7 | O=C(Nc1nc(C23CC4CC(CC(C4)C2)C3)cs1)c1cc2ccc(O)cc2oc1=O | > 200 µM | 7.41 µM | –
8 | CNC(=S)N/N=C1\CC(c2ccccc2)Oc2ccccc21 (centres undefined) | – | – | inactive
9 | N#C/C(=C\c1ccc2[nH]ccc2c1)C(=O)c1ccc(O)c(O)c1 | > 589 µM | 102 µM | –
10 | CCCCCCCCCCCCCCCCCC(=O)OCCO | – | – | inactive
11 | CC1=CC(=O)N(n2c(Cc3ccccc3)n[nH]c2=O)C1=O | > 200 µM | > 200 µM | –
12 | CC(=O)Nc1nc(NC(C)=O)c(N=O)c(NC(C)=O)n1 | > 200 µM | 115 µM | –
13 | COc1ccc2c(c1)Oc1cc(O)ccc1[C@H]2c1ccccc1C(=O)NC(C)c1ccccc1 (some centres undefined) | > 15.8 µM | 13.8 µM | –
14 | CC1CCC23COC(=O)C2=CCCC3C1(C)CC/C(=C/CO)CO (centres undefined) | – | – | inactive
15 | CC(NC(=O)C(C)C(=O)NCc1ccc(C(F)(F)F)cc1)C(N)=O (centres undefined) | > 200 µM | 115 µM | –
16 | CC(=O)N/C=C/c1cc(O)ccc1O | – | – | inactive
17 | CCCCCC(=O)OCCOCCOCCOCCOCCOCc1ccccc1 | – | – | inactive
18 | COc1cc2c(cc1OC)C(=O)/C(=C/c1ccc(Cl)cc1)CC2 | > 200 µM | > 200 µM | –
19 | O=C1C=C(Br)c2c(-c3ccccc3)oc3cccc1c23 | – | – | inactive
20 | O=c1oc2ccccc2cc1/C=N/N1C(=S)N(c2ccccc2)C(=Nc2ccccc2)C1=Nc1ccccc1 | > 200 µM | > 200 µM | –
21 | CCc1ccccc1-n1c2nc(=O)n(C)c(=O)c-2nc2ccccc21 | – | – | inactive

Row | Structure (SMILES) | EC50 | IC50 | outcome
22 | CC1(C)OC2C=C(COCc3ccccc3)C[C@H]3[C@@H]2C(O1)[C@@H]1OC[C@H]3O1 (some centres undefined) | – | – | inactive
23 | Cc1c(CCl)c(=O)oc2c(C)c3occ(CCl)c(=O)c3cc12 | > 11.2 µM | 4.9 µM | –
24 | O=C(CC(C(=O)c1ccsc1)c1ccc2c(c1)OCO2)c1ccccc1 (centres undefined) | > 200 µM | > 200 µM | –
25 | NCCN.NCCN.NCCN.O=C([O-])[C@@H](O)[C@@H](O)C(=O)[O-].[Cl-].[Co+3] | > 100 µM | > 100 µM | –
26 | COc1cc(C2c3cc4c(cc3OC3(O)COC(=O)C23)OCO4)cc(OC)c1OC (centres undefined) | > 200 µM | 105 µM | –
27 | Cc1nc2nc[nH]n2c1N=Nc1ccccc1 | > 200 µM | > 200 µM | –
28 | Cn1c(=O)cc(CC#N)c2ccccc21 | > 200 µM | > 200 µM | –
29 | COP(=O)(OC)/C(=C\c1cn(C(c2ccccc2)(c2ccccc2)c2ccccc2)cn1)NC(C)=O | > 200 µM | 83.2 µM | –
30 | CCN(CC)C(=S)N=N/C(C)=C1/C=CC=CN1O | > 200 µM | 1.1 µM | –
31 | NC(=O)n1cnc(N)n1 | > 200 µM | > 200 µM | –
32 | CC[N+]1(C)CCC(O)(/C=C/c2ccc(Cl)c(Cl)c2)C(C(=O)/C=C/c2ccc(Cl)c(Cl)c2)C1 (centres undefined) | > 200 µM | 3.8 µM | –
33 | O=S(=O)(Cc1nc2ccccc2s1)c1nc2ccccc2s1 | > 200 µM | 4.79 µM | –
34 | COC(=O)[C@@]12C=CC(=O)[C@H]3C[C@@H](C(C(C)C)C1)[C@]32OC (some centres undefined) | – | – | inactive
35 | Cc1cc(C)c(S(=O)(=O)N(CCCCCCN)OCCCN)c(C)c1 | > 200 µM | 30.2 µM | –
36 | CC1(CO)COc2ccccc2C1=O (centres undefined) | > 200 µM | > 200 µM | –
37 | CC12C3CC4C5CC(C(C53)[C@@H]1NCc1ccccc1)C42 (some centres undefined) | > 437 µM | 77.6 µM | –
38 | CC1(C)C(=O)N2CCSC21 (centres undefined) | > 16.6 µM | > 16.6 µM | –
39 | Cc1ccc(S(=O)(=O)NC(=O)Nc2nc(Cl)cc(Cl)n2)cc1 | > 100 µM | 87.1 µM | –
40 | NNc1nncc2[nH]cnc12 | > 200 µM | > 200 µM | –
41 | O=[N+]([O-])c1ccc2nncc(N3CC3)c2c1 | – | – | inactive
42 | CC12C(=O)OC(=O)C1(C)C1C=CC2O1 (centres undefined) | > 200 µM | 132 µM | –

Row | Structure (SMILES) | EC50 | IC50 | outcome
43 | NN1C(=O)c2cccc3cccc(c23)C1=O | > 100 µM | 49 µM | –
44 | O=C1/C(=C/c2ccccc2Cl)COc2ccccc21 | > 19.1 µM | 11.2 µM | –
45 | COC(=O)N1CCC(Sc2ccccc2)C2(CCOC(=O)c3ccccc3)CCC(O)C12 (centres undefined) | > 40.7 µM | > 40.7 µM | –
46 | Cc1ncc([N+](=O)[O-])n1CC(O)Cn1cnc([N+](=O)[O-])n1 (centres undefined) | > 200 µM | > 200 µM | –
47 | CC(C)c1cc2c(O)c(c1)Cc1cc(C(C)C)cc(c1O)Cc1cc(C(C)C)cc(c1O)Cc1cc(C(C)C)cc(c1O)Cc1cc(C(C)C)cc(c1O)Cc1cc(C(C)C)cc(c1O)C2 | > 14.5 µM | > 14.5 µM | –
48 | N=C1/C(=C/c2ccccc2)C(=O)N=C2SC=NN12 | > 200 µM | > 200 µM | –
49 | COC(=O)c1cc(C(=O)OC)c(C/C(=N/Nc2ccc([N+](=O)[O-])cc2[N+](=O)[O-])C(=O)Nc2cccc(C(F)(F)F)c2)nc1C/C(=N/Nc1ccc([N+](=O)[O-])cc1[N+](=O)[O-])C(=O)Nc1cccc(C(F)(F)F)c1 | > 200 µM | 70.8 µM | –
50 | CCCCCCCCS(=O)(=O)O | > 200 µM | > 200 µM | –
51 | N#C/C=C(/NC(=O)Nc1ccccc1)N1CCCC1 | > 200 µM | > 200 µM | –
52 | CC(=O)OC[C@]12[C@H](OC(C)=O)[C@H](OC(C)=O)[C@@H]3C(O)[C@@]14OC3(C)COC(=O)c1cccnc1CCC(C)C(=O)OC([C@H](OC(C)=O)[C@@H]2OC(=O)c1ccccc1)[C@]4(C)O (some centres undefined) | > 30.2 µM | > 30.2 µM | –
53 | COC(=O)CC(NC(=O)OCc1ccccc1)C(C(=O)OCc1ccccc1)C(C)(OC)OC (centres undefined) | > 50.1 µM | 20.4 µM | –
54 | O=C1c2cccc3cccc(c23)C(=O)N1Cc1ccccc1 | > 200 µM | 61.7 µM | –
55 | CN(C)CCSc1ccc(-c2ccc(-c3ccc(SCCN(C)C)cc3)nn2)cc1 | 6.92 µM | 8.13 µM | –
56 | C#CC(C)(C)Oc1ccc2c(=O)c(-c3ccc(OC)c(OC)c3)coc2c1 | > 200 µM | 22.4 µM | –
57 | O=C(c1nc2ccc([N+](=O)[O-])cc2[nH]c1=O)C(O)c1ccc2c(c1)OCO2 (centres undefined) | > 676 µM | 245 µM | –
58 | COc1ccc2ccccc2c1-c1cccc2ccccc12 | > 200 µM | 32.4 µM | –
59 | N#Cc1nc(Nc2ccc([N+](=O)[O-])cc2)sc1N | > 38 µM | 19.1 µM | –
60 | C=Cc1cc[n+](Cc2ccc(C[n+]3ccc(C=C)cc3)cc2)cc1 | > 166 µM | 85.1 µM | –
61 | C[CH2][Sn]1([CH2]C)[O]C2C(O)OC(CO)C(O)C2[O]1 (centres undefined) | > 200 µM | 3.16 µM | –
62 | CCOP(=O)(OCC)C(=C1C=C(C(C)(C)C)C(=O)C(C(C)(C)C)=C1)P(=O)(OCC)OCC | > 200 µM | 0.933 µM | –
63 | CCN(CC(COc1ccc2c(c1)[n+]([O-])nc(N)[n+]2[O-])OC(C)=O)C(C)=O (centres undefined) | > 200 µM | 14.8 µM | –

Row | Structure (SMILES) | EC50 | IC50 | outcome
64 | O=c1n(-c2ccc(Cl)c(Cl)c2)c(=O)n(-c2ccc(Cl)c(Cl)c2)c(=O)n1-c1ccc(Cl)c(Cl)c1 | > 200 µM | 5.89 µM | –
65 | Cc1occc1C(=S)Nc1ccc(Cl)c(C(=O)OC(C)C2CC2)c1 (centres undefined) | 0.0234 µM | 47.9 µM | –
66 | CN(C)c1ccc(/C=C(/C(=O)O)c2csc(-c3nc(/C(=C\c4ccc(N(C)C)cc4)C(=O)O)cs3)n2)cc1 | > 34.7 µM | > 34.7 µM | –
67 | N#CC(C#N)=C(N)/C(C#N)=C/c1ccc2[nH]ccc2c1 | > 200 µM | > 200 µM | –
68 | Cc1cc(C)cc(N(C2C3CCC(C)(C2O)C3(C)C)S(=O)(=O)c2ccccc2)c1 (centres undefined) | > 200 µM | 24.5 µM | –
69 | COC(=O)Nc1cn2nc(N)sc2n1 | > 200 µM | > 200 µM | –
70 | CCC(C)C(NC(=O)C(CCC(N)=O)NC(=O)C(CCC(N)=O)NC(=O)C(CO)NC(=O)C(CC(C)C)NC(=O)C(CC(N)=O)NC(=O)C(N)C(C)O)C(=O)NC(CO)C(=O)NC(CO)C(=O)NC(CC(N)=O)C(=O)O (centres undefined) (H-TNLSQQISSN-OH; configuration not given here) | > 28.8 µM | > 28.8 µM | –
71 | Cc1cc(C)n(-c2nsc3ccccc23)n1 | > 112 µM | > 112 µM | –
72 | CC1(C)C2CCC1(C)C(NC(=O)CCN1CCOCC1)C2 (centres undefined) | > 851 µM | 537 µM | –
73 | CN1CN(c2ccccc2)C2(CCN(CCC3COc4ccccc4O3)CC2)C1=O (centres undefined) | > 200 µM | 30.9 µM | –
74 | COc1ccc2c(O)c(-c3ccc(OC)c(OC)c3)c(=O)oc2c1 | – | – | inactive
75 | CC(=O)Nc1ccc2c(C)c3c4ccccc4n(C)c3nc2n1 | > 200 µM | 5.25 µM | –
76 | S=C(NNC1=NCCCCN1)Nc1ccccc1 | > 200 µM | 112 µM | –
77 | CC(=O)C(N1CCCCC1)C(O)(C(F)(F)F)C(F)(F)F (centres undefined) | > 200 µM | 91.2 µM | –
78 | CCOC(=O)c1c(N2CCCC2)ncn(Cc2ccccc2)c1=S | > 200 µM | > 200 µM | –
79 | O=c1n(Cc2ccccc2)c2ccccc2n1CC1CS1 (centres undefined) | > 45.7 µM | 19.5 µM | –
80 | OC(CC(O)(C(F)(F)Cl)C(F)(F)Cl)c1ccccc1 (centres undefined) | > 200 µM | 44.7 µM | –
81 | Cc1c(C(c2[nH]c3ccccc3c2C)c2[nH]c3ccccc3c2C)[nH]c2ccccc12 | 0.0631 µM | 13.5 µM | –
82 | Cc1ccnc2c1C(=O)C(=O)C=C2N(C)C | – | – | inactive
83 | O=[N+]([O-])c1c(C=Nc2ccccc2)oc(-c2c(O)ccc3ccccc23)c1-c1c(O)ccc2ccccc12 | > 200 µM | 31.6 µM | –
84 | Clc1cc2c(c(CSc3nc4ccccc4n4cccc34)c1)OCOC2 | > 13.5 µM | > 13.5 µM | –
